Test results published in patent publication US4596806A, “7-piperidino-1,2,3,5-tetrahydroimidazo[2,1-b]-quinazolin-2-one having platelet aggregation inhibitory activity” (Daiichi Seiyaku Co., Ltd., priority 1983, dated 1986).
Like-named read-outs stand apart in the source and are kept apart here.

Key:
platelet aggregation [1] = assay: Test of Platelet Aggregation Inhibition (in vitro), rat PRP; format: cell-based, rat (Wistar Imamichi); details: rat blood, read-out: Platelet Aggregation Inhibitory Activity (in vitro: IC50)
Experimental: The test was performed as follows in accordance with the method of Ashida et al, Thrombosis and Haemostasis, Vol. 40, p542 (1979).
Blood was taken by puncture from the heart of a Wistar Imamichi rat under anesthesia with pentobarbital into a syringe containing 1/10 volume of a 3.13% aqueous solution of sodium citrate dihydrate, and the citrated blood was centrifuged to obtain a platelet-rich-plasma (PRP). In the same manner, citrated blood was collected from the vein of a healthy human who had not taken aspirin or any other anti-inflammatory agent since before 10 days, followed by centrifugation to obtain PRP. 0.005 ml of each test compound was added to 0.445 ml each of these PRP samples, and the system was warmed at 30° C. for 1 minute. 0.05 ml of an aggregation inducer (ADP or collagen) was then added thereto, and platelet aggregation was determined according to the method of Born, Nature, Vol. 194, p927 (1962). The inhibitory activity of platelet aggregation was expressed in terms of 50% inhibition concentration, and the results obtained are shown in Table 2.

platelet aggregation [2] = assay: Test of Platelet Aggregation Inhibition (ex vivo, p.o.); format: in vivo, rat (male Wistar Imamichi); details: for inhibition at 1 mg/kg / inhibition at 10 mg/kg: Rattus norvegicus, Platelet, po, 1 h, read-out: Platelet Aggregation Inhibitory Activity (ex vivo: % inhibition); for inhibition at 1 mg/kg: p.o. 1 mg/Kg; for inhibition at 10 mg/kg: p.o. 10 mg/Kg
Experimental: One hour later, citrated blood was taken from the heart, and platelet aggregation was determined in the same manner as described in Test Example 2.

[3] = system: platelet aggregation due to addition of 3LL cells; assay: Test of Inhibition of Platelet Aggregation Caused by Cancer Cells (in vitro), 3LL; format: cell-based, C57BL/6 mouse
Experimental: Blood was taken from the abdominal vein of a 7-week-old C57BL/6 male mouse into a syringe containing 1/10 volume of a 3.13% aqueous solution of sodium citrate dihydrate as an anticoagulant. The thus prepared citrated blood sample was centrifuged at 230×g at room temperature for 7 minutes. The resulting supernatant fluid was used as PRP. The remainder was further centrifuged at 1,500×g at room temperature for 10 minutes, and the supernatant fluid was used as platelet-poor-plasma (PPP). Platelet count in PRP was adjusted to 450,000 per mm^3 by PPP. A 450 μl of PRP was placed in a reaction tube and subjected to centrifugation at 950 rpm at 30° C. About 1 minute later while continuing the centrifugation, 5 μl of a 200 mM calcium chloride aqueous solution was added to the system to a final concentration of […]. 30 seconds later, 5 μl of a saline solution of the compound (I) (dihydrochloride monohydrate) was added to the system, and additional 30 seconds later, 50 μl of a cell suspension containing 1×10^5 cells of B16 melamona BL6 (B16BL6) originated in a C57BL mouse or 50 μl of a cell suspension containing 1×10^6 cells of Lewis lung cancer (3LL) originated in a C57BL mouse was added thereto. Platelet aggregation of the sample system was determined from changes in transmittancy by use of an aggregometer. […]

B16BL6 = assay: Test of Inhibition on Pulmonary Metastasis, B16BL6; format: in vivo, C57BL/6 mouse; details: day 13, mean ± standard error
Experimental: 1×10^5 cells/animal of B16BL6 or 7×10^5 cells/animal of 3LL were inoculated to the tail vein of 10 to 12 6-week-old C57BL/6 male mice per group (body weight: about 18.5 g). The compound (I) (dihydrochloride monohydrate) dissolved in a physiological saline solution (J.P.) was administered to each animal at a dose of 1, 3 or 10 mg/kg orally 24 hours, 1 hour before and 1 hour after the inoculation, or intravenously immediately before the inoculation. On the 13th day from the inoculation of B16BL6 or 11th day from the inoculation of 3LL, the number of metastatic nodules in the lungs was counted using an operating microscope.

[4] = LD50 (probit method), rat; details: in vivo, iv
[5] = system: pancreatic juice secretion; assay: Test of Stimulation on Pancreatic Juice Secretion in Dog; format: in vivo, dog (adult mongrel); details: for total output amount of bicarbonate ions as compared with the control: 30 minutes after administration; for Pancreatic Juice Secretion, Total: total 0-60 min; for total volume of pancreatic juice as compared with the control (100%): total after 60 minutes
Experimental: Adult mongrel dogs (male and female) having a body weight of 11.8 to 15.8 Kg were anesthetized with Nembutal and Phenobal and a cannula was inserted into pancreatic duct. A solution of Compound (I) dissolved in a physiological saline solution was administered intravenously from femoral vein at a dose of 0.5 ml/Kg. The volume of pancreatic juice was determined in a polyethylene tube connected to the cannula, and the bicarbonate ion concentration in the pancreatic juice was determined by neutralization titration. As a control, a physiological saline solution was administered intravenously.

O=C1CN2Cc3cc(N4CCCCC4)ccc3N=C2N1 [Compound (I), 7-piperidino-1,2,3,5-tetrahydroimidazo[2,1-b]quinazolin-2-one]
IC50 (platelet aggregation [1]; inducer ADP): 3.8 µM
IC50 (platelet aggregation [1]; inducer collagen): 0.33 µM
inhibition at 1 mg/kg (platelet aggregation [2]; inducer ADP): 16.8%
inhibition at 1 mg/kg (platelet aggregation [2]; inducer collagen): 20.6%
inhibition at 10 mg/kg (platelet aggregation [2]; inducer ADP): 33.8%
inhibition at 10 mg/kg (platelet aggregation [2]; inducer collagen): 59.5%
aggregation inhibitory activity ex vivo (in words) (platelet aggregation [2]; p.o. 10 mg/Kg or 1 mg/Kg, ADP- or collagen-induced): significant aggregation inhibitory activity
inhibition of platelet aggregation due to addition of 3LL cells ([3]; 0.3 μM): partially inhibited
inhibition of platelet aggregation due to addition of 3LL cells ([3]; final concentration of 1 μM or more): completely inhibited
Number of Metastatic Nodules in the Lungs (B16BL6; 1 mg/kg): 5.5 ± 1.1
Number of Metastatic Nodules in the Lungs (B16BL6; 3 mg/kg): 5.3 ± 1.1
Number of Metastatic Nodules in the Lungs (B16BL6; 10 mg/kg): 6.4 ± 1.1
LD50 ([4]; female Wistar rat): 219 mg/kg
LD50 ([4]; male Wistar rat): 232 mg/kg
total output amount of bicarbonate ions as compared with the control ([5]; 300 μg/Kg): 198%
bicarbonate ion concentration in pancreatic juice as compared with the control ([5]; 1000 μg/Kg): 266%
total output amount of bicarbonate ions as compared with the control ([5]; 1000 μg/Kg): 674%
bicarbonate ion concentration in pancreatic juice as compared with the control ([5]; i.v. 100 μg/Kg): 109%
total output amount of bicarbonate ions as compared with the control ([5]; i.v. 100 μg/Kg): 116%
Amount of Bicarbonate Ion Secretion ([5]; i.v. 100 μg/kg): 44.6 ± 9.3 µEq/h
Bicarbonate Ion Concentration ([5]; i.v. 100 μg/kg): 44.5 ± 6.1 mEq/l
activity on the pancreatic juice secretion (in words) ([5]; i.v. 100 μg/kg): did not show any significant activity
Pancreatic Juice Secretion ([5]; i.v. 100 μg/kg, 0-15 min): 323 ± 81 µL
Pancreatic Juice Secretion ([5]; i.v. 100 μg/kg, 15-30 min): 223 ± 45 µL
Pancreatic Juice Secretion ([5]; i.v. 100 μg/kg, 30-45 min): 178 ± 31 µL
Pancreatic Juice Secretion ([5]; i.v. 100 μg/kg, 45-60 min): 226 ± 48 µL
Pancreatic Juice Secretion, Total ([5]; i.v. 100 μg/kg): 950 ± 185 µL
bicarbonate ion concentration in pancreatic juice as compared with the control ([5]; i.v. 300 μg/Kg): 130%
total volume of pancreatic juice as compared with the control (100%) ([5]; i.v. 300 μg/Kg): 161%
Amount of Bicarbonate Ion Secretion ([5]; i.v. 300 μg/kg): 65.9 ± 9.6 µEq/h
Bicarbonate Ion Concentration ([5]; i.v. 300 μg/kg): 45.8 ± 2.1 mEq/l
Pancreatic Juice Secretion ([5]; i.v. 300 μg/kg, 0-15 min): 521 ± 112 µL
Pancreatic Juice Secretion ([5]; i.v. 300 μg/kg, 15-30 min): 321 ± 53 µL
Pancreatic Juice Secretion ([5]; i.v. 300 μg/kg, 30-45 min): 291 ± 44 µL
Pancreatic Juice Secretion ([5]; i.v. 300 μg/kg, 45-60 min): 310 ± 31 µL
pancreatic juice secretion as compared with the control (100%) ([5]; i.v. 300 μg/kg, after 15 minutes): 214%
Pancreatic Juice Secretion, Total ([5]; i.v. 300 μg/kg): 1444 ± 214 µL
total volume of pancreatic juice as compared with the control (100%) ([5]; i.v. 1000 μg/Kg): 254%
Amount of Bicarbonate Ion Secretion ([5]; i.v. 1000 μg/kg): 224 ± 24.7 µEq/h
Bicarbonate Ion Concentration ([5]; i.v. 1000 μg/kg): 79.8 ± 5.6 mEq/l
Pancreatic Juice Secretion ([5]; i.v. 1000 μg/kg, 0-15 min): 1363 ± 117 µL
Pancreatic Juice Secretion ([5]; i.v. 1000 μg/kg, 15-30 min): 573 ± 69 µL
Pancreatic Juice Secretion ([5]; i.v. 1000 μg/kg, 30-45 min): 455 ± 100 µL
Pancreatic Juice Secretion ([5]; i.v. 1000 μg/kg, 45-60 min): 414 ± 112 µL
pancreatic juice secretion as compared with the control (100%) ([5]; i.v. 1000 μg/kg, after 15 minutes): 440%
pancreatic juice secretion as compared with the control (100%) ([5]; i.v. 1000 μg/kg, after 30 minutes): 202%
Pancreatic Juice Secretion, Total ([5]; i.v. 1000 μg/kg): 2805 ± 225 µL
